Experimental data published in ChEMBL document CHEMBL1201862, “PubChem BioAssay data set” (2004).
Calls of active or inactive are those of the source.

Columns and labels:
[1] = tested on: Escherichia coli; test: microbe, parasite or virus in culture
[2] = biological target: Nonstructural protein 1 (Influenza A virus, UniProt Q194T2); type: functional, Influenza A virus (A/California/07/2009(H1N1))
[3] = cytotoxicity toward NIH3T3 fibroblasts, dose response, counter-screen, cell-based, ATP luminescence, mouse fibroblasts (AID 2010); type: functional;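 further: cells exposed to compound for about 90 hours before reading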
[4] = biological target: 5-hydroxytryptamine receptor 5A (Homo sapiens, UniProt P47898); test: Counterscreen for agonists of OPRM1-OPRD1 heterodimerization: luminescence-based cell-based high throughput dose response assay to identify agonists of 5-hydroxytryptamine (serotonin) 5A receptor (HTR5A). [Related pubchem assays (depositor defined):AID504326, AID504355, AID504692, AID504904, AID504905]; type: functional
Chain of 5-hydroxytryptamine receptor 5A (P47898 whole entry): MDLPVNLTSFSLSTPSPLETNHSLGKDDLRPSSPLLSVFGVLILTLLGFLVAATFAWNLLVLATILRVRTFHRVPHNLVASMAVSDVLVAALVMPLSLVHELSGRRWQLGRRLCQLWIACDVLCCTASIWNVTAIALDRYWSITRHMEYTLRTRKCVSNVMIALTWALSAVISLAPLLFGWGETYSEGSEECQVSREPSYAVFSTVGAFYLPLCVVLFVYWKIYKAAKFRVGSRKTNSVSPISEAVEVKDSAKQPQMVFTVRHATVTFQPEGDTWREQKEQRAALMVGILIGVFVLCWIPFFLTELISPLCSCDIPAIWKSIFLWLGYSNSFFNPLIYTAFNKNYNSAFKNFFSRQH

[5] = inhibitors of intracellular T. cruzi replication, confirmation, NIH3T3 host cells, beta-gal luminescence (AID 2044); type: functional, cell-based;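 further: intracellular parasites grown in NIH/3T3 mouse fibroblasts as host cells; luminescent beta-galactosidase reporter signal from transgenic T. cruzi replicating inside host cells; inhibitors lower the luminescence signal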
[6] = biological target: Mu-type opioid receptor (Homo sapiens, UniProt P35372); test: (§1) Counterscreen for agonists of heterodimerization of the mu 1 (OPRM1) and delta 1 (OPRD1) opioid receptors: Luminescence-based cell-based high throughput dose response assay to identify agonists of OPRM1 homodimerization.; type: functional
Chain of Mu-type opioid receptor (P35372 whole entry): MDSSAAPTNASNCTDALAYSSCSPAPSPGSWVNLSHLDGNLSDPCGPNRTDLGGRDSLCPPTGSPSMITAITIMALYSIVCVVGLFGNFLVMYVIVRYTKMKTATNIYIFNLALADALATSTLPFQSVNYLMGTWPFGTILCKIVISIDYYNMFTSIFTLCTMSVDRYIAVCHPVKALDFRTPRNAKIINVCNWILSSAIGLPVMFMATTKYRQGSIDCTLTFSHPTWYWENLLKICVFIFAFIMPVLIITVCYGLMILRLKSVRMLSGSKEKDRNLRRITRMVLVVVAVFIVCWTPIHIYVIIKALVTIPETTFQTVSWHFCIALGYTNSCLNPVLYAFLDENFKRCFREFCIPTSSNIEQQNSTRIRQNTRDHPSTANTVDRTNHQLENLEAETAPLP

[7] = biological target: Delta-type opioid receptor (Homo sapiens, UniProt P41143); test: as §1, with “of OPRD1” for “of OPRM1”, “homodimerization. [Related pubchem assays (depositor defined):AID504326, AID504355, AID504692, AID504904, AID504905]” for “homodimerization.”; type: functional
Chain of Delta-type opioid receptor (P41143 whole entry): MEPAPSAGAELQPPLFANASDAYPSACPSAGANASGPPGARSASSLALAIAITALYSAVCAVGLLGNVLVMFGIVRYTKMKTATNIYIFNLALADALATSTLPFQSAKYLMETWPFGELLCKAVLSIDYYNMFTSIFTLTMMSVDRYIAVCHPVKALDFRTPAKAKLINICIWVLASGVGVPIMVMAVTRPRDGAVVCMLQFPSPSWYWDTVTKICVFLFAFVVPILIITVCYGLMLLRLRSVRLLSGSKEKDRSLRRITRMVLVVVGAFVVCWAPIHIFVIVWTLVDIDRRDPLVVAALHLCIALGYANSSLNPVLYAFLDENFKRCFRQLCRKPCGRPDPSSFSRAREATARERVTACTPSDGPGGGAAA

[8] = biological target: T1, Short transient receptor potential channel 4 (Mus musculus, UniProt Q9QUQ5); test: mouse TRPC4 channel activators, dose response, cell-based, HEK293 TRPC4/mu-opioid, Fluo-4 calcium (AID 434937); type: functional
T1 sequence (Q9QUQ5 whole entry): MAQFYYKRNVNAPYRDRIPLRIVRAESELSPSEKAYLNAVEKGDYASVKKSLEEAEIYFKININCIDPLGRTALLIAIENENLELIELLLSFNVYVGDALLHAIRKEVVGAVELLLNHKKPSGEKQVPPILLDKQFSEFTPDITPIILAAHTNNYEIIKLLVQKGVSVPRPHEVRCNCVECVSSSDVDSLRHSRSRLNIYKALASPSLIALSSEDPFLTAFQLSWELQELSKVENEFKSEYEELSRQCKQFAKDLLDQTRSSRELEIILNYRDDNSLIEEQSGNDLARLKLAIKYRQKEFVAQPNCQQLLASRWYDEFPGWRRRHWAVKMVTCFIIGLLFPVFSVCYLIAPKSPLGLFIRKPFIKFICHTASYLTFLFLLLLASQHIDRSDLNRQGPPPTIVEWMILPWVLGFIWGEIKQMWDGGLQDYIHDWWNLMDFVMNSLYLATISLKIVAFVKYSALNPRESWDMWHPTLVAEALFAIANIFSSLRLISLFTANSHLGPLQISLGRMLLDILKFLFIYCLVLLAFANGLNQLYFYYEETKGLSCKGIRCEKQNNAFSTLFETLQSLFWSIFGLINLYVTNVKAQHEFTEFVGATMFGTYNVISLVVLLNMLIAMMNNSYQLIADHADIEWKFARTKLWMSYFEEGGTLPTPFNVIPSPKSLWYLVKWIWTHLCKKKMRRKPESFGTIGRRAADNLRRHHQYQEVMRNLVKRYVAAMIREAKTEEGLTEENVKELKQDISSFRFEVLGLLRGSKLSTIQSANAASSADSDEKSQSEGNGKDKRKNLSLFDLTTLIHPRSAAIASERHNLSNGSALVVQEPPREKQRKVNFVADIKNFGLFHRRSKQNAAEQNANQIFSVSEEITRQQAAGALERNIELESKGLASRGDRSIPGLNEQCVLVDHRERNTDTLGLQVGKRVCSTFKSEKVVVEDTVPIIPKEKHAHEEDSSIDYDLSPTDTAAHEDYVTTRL

[9] = tested on: A-375; test: MITF: Counter assay: A375 proliferation Measured in Cell-Based System Using Plate Reader - 2084-03_Inhibitor_Dose_DryPowder_Activity. [Related pubchem assays (depositor defined):AID488944]; type: functional; conditions: Homo sapiens
[10] = tested on: A-375; test: A375 melanoma cell viability reduction, dose response, counter-screen for MITF modulator project, cherry-pick samples, set 2 (AID 540335); type: functional, cell-based; conditions: Homo sapiens
[11] = biological target: T2, Sentrin-specific protease 7 (Homo sapiens, UniProt Q9BQF6); test: SENP7 protease inhibitors, SAR follow-up, biochemical, luminescence, set 2 (AID 588600); type: functional
T2 sequence (Q9BQF6 whole entry): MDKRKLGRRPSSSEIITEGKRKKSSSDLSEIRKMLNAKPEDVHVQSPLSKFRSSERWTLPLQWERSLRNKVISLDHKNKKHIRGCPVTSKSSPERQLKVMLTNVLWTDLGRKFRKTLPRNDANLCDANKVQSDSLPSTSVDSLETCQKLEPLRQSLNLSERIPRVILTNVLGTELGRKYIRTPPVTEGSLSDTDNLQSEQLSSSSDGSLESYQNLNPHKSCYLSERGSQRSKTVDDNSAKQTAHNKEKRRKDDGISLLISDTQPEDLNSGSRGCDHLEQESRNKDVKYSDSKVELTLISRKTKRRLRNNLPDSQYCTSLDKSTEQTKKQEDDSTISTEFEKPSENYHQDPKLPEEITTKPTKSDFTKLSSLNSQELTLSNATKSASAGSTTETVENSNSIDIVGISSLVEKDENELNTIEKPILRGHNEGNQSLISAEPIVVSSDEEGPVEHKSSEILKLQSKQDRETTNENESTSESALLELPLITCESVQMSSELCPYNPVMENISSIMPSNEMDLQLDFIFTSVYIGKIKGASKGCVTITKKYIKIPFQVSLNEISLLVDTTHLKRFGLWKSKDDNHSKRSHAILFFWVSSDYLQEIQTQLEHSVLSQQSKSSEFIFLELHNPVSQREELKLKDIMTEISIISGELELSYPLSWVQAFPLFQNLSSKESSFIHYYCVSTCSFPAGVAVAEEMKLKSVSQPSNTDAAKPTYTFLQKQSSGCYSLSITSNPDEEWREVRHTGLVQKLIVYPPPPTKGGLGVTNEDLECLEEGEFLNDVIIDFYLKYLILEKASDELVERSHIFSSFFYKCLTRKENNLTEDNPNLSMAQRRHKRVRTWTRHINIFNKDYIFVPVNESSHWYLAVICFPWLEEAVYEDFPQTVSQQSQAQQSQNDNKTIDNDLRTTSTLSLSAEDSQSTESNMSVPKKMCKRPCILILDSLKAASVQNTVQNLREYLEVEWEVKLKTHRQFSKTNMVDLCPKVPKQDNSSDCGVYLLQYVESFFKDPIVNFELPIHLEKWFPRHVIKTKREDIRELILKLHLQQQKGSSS

[12] = biological target: T3, Sentrin-specific protease 6 (Homo sapiens, UniProt Q9GZR1); test: SENP6 protease inhibitors, SAR follow-up, biochemical, luminescence, set 2 (AID 588598); type: functional
T3 sequence (Q9GZR1 whole entry): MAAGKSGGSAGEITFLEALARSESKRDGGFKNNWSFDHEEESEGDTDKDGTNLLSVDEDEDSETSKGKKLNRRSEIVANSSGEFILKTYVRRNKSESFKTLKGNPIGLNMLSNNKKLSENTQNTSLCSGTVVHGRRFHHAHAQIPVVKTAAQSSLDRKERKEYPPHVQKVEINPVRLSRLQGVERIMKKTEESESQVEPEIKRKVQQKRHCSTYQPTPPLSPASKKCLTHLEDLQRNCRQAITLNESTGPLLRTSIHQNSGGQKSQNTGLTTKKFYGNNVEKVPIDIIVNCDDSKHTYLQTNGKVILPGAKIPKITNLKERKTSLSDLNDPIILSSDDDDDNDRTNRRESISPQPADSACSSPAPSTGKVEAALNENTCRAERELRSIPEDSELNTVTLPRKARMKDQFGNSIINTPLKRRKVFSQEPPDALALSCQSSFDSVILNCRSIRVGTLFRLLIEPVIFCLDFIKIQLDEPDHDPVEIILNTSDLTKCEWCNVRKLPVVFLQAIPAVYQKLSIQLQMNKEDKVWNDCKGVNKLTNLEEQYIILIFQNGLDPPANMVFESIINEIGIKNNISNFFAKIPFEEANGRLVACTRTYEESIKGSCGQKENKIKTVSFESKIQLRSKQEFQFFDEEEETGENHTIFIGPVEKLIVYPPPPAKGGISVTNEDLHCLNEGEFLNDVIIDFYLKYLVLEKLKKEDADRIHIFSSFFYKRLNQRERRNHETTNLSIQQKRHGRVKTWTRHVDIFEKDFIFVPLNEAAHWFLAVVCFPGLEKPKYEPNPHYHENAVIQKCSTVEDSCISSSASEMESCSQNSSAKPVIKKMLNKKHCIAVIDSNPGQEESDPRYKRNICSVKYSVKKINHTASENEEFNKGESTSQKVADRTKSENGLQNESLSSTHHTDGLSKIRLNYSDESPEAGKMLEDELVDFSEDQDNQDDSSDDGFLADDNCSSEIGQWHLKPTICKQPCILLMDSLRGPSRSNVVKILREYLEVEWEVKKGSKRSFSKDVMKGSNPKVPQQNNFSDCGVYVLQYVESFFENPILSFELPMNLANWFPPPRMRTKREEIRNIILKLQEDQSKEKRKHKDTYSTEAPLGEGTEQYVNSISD

[13] = biological target: T4, Sentrin-specific protease 8 (Homo sapiens, UniProt Q96LD8); test: SENP8 protease inhibitors, SAR follow-up, biochemical, luminescence, set 2 (AID 588601); type: functional
T4 sequence (Q96LD8 whole entry): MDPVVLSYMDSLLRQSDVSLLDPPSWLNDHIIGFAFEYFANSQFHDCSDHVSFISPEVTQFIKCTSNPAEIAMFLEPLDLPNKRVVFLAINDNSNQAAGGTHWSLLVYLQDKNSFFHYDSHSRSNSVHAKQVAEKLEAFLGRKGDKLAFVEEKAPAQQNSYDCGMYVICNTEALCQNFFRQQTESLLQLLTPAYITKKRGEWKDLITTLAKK

[14] = biological target: T5, Caspase-3 (Homo sapiens, UniProt P42574); test: caspase-3 inhibitors as off-family protease, SAR follow-up, selectivity assay for SENP protease inhibitor project, biochemical, luminescence, set 2 (AID 588599); type: functional
T5 sequence (P42574 whole entry): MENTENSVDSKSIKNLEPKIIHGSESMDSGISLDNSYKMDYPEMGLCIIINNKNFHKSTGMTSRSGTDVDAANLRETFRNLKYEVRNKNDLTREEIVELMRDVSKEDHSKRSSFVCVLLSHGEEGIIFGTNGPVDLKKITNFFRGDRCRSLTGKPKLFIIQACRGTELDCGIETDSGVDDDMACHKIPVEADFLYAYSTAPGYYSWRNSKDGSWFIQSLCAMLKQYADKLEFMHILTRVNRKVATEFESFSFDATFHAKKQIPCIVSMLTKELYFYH

[15] = tested on: Escherichia coli; test: microbe, parasite or virus in culture; remark: listed apart in the source
[16] = biological target: Dual specificity protein kinase CLK1 (Homo sapiens, UniProt P49759); test: CLK1 kinase inhibitors, off-target check, dose response, selectivity assay for Dyrk1A inhibitor project, biochemical, cherry-picked samples (AID 588811)
Chain of Dual specificity protein kinase CLK1 (P49759 whole entry): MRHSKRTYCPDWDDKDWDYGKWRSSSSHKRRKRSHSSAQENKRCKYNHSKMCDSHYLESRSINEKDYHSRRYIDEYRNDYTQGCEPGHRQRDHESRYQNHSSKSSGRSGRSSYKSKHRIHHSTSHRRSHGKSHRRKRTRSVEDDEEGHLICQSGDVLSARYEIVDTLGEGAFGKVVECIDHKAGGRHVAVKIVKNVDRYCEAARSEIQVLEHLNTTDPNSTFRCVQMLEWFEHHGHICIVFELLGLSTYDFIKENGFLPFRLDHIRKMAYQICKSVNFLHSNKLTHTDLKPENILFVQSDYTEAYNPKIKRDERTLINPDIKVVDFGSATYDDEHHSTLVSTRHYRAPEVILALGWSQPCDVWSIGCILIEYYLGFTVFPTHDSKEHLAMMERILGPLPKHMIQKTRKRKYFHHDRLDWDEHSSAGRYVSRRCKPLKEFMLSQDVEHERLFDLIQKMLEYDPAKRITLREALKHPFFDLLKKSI

[17] = biological target: CAAX prenyl protease 2 (Homo sapiens, UniProt Q9Y256); test: human Rce1 protease inhibitors, dose response, biochemical, yeast membranes, quenched-peptide fluorescence, cherry-pick (AID 588849)
Chain of CAAX prenyl protease 2 (Q9Y256 whole entry): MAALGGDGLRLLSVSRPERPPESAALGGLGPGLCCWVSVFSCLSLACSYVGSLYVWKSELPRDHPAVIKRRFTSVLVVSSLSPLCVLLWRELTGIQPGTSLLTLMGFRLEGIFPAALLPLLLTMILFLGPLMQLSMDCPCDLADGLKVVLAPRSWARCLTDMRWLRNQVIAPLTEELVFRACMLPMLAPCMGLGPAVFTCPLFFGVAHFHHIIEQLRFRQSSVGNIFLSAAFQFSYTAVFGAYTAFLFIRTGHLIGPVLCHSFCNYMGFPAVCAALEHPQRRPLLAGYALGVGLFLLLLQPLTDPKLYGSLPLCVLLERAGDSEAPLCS

[18] = biological target: Trypsin (Sus scrofa, UniProt P00761); test: porcine trypsin inhibitors, dose response, selectivity assay for Rce1 protease inhibitor project, biochemical, quenched peptide fluorescence, cherry-pick (AID 488789)
Chain of Trypsin (P00761 whole entry): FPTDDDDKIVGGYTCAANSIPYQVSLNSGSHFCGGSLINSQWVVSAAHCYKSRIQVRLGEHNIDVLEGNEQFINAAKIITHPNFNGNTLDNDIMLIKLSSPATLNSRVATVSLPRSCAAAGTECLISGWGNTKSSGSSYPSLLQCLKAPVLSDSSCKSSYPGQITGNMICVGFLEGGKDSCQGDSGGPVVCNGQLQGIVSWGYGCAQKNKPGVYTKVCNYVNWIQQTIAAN

Chain of Nonstructural protein 1 (Q194T2 whole entry): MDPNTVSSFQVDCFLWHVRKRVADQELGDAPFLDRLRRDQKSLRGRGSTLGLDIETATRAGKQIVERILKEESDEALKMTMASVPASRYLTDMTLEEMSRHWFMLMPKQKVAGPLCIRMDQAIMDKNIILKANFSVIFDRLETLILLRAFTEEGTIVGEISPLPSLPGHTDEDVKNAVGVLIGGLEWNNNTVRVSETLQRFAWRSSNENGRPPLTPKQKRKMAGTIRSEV

With `O=C(CSC1=NCCS1)c1ccc(Cl)cc1` the AC50 [1] was 28 µM (active).

For `Cc1cc(N2CCN(C)CC2)ccc1NC(=O)c1ccc(-c2ccc(Cl)cc2)o1`, the IC50 [2] was 44 µM (active), the EC50 [3] was 9.64 µM (active) and the EC50 [4] was > 92.4 µM (inactive). For the same molecule, the EC50 [5] was 0.254 µM (active), the EC50 [6] was > 92.4 µM (inactive) and the EC50 [7] was > 92.4 µM (inactive). The EC50 [8] was 0.749 µM (active).

In the case of `O=C(NCc1ccc2c(c1)OCO2)c1cc(O)nc2ccccc12`, the AC50 [9] is reported as > 35 µM (active) and the AC50 [10] is reported as > 35 µM (active).

In the case of `CCOc1cccc2sc(NC(=O)c3ccc(C#N)cc3)nc12`, the IC50 [11] is reported as > 99 µM (inactive), the IC50 [12] is reported as > 99 µM (inactive) and the IC50 [13] is reported as > 99 µM (inactive). The IC50 [14] was > 99 µM (inactive).

With `Cc1ccccc1OCC(=O)Nc1nnc(-c2ccncc2)s1` the AC50 [15] was 39.7 µM (active).

For `Cc1ccc(CNc2ncnc3ccc(-c4ccc5c(c4)OCO5)cc23)o1`, the AC50 [16] was 0.0226 µM (active).

For `CC(Nc1nc(-c2cccnc2)nc2ccccc12)c1ccc(F)cc1` (stereo not drawn), the EC50 [3] was 14.4 µM (active), the AC50 [16] was 9.34 µM (active) and the EC50 [5] was 0.658 µM (active).

For `CN(C(=O)C(=O)c1c[nH]c2ccccc12)C1CCCCC1`, the IC50 [11] was > 99 µM (inactive), the IC50 [12] was > 99 µM (inactive) and the IC50 [13] was > 99 µM (inactive). The IC50 [14] was > 99 µM (inactive).

With `O=C(NCc1ccco1)c1ccc(COCC(F)(F)F)cc1` the AC50 [9] was > 35 µM (active) and the AC50 [10] was > 35 µM (active).

In the case of `CN(C)CCCN(C(=O)c1ccc(S(=O)(=O)N2CCCCCC2)cc1)c1nc2c(F)cc(F)cc2s1`, the EC50 [4] is reported as > 92.4 µM (inactive), the EC50 [6] is reported as 33.4 µM (inactive) and the EC50 [7] is reported as > 92.4 µM (inactive). The EC50 [8] was 5.31 µM (active).

With `CCOC(=O)c1c(-c2ccc(OC)cc2)oc2ccc(OC(=O)N(C)C)cc12` the AC50 [17] was 6.46 µM (active).

For `C=CCn1c(SCC(=O)NCc2ccc3c(c2)OCO3)nnc1-c1cccnc1`, the AC50 [15] was 50.2 µM (active).

For `Cc1cc(=O)oc2c3c(cc(OCC(=O)N4CCC(C(=O)O)CC4)c12)OC(C)(C)CC3`, the AC50 [18] was 1.51 µM (active) and the AC50 [17] was 1.28 µM (active).
